Test results reported in the NIST ThermoML archive (doi:10.1016/j.fluid.2008.01.004).

Tests used:
[1] = mn = molality of the nth substance listed, in mol/kg; details: 283.15 K; 101 kPa; Liquid; m2 = 0
[2] = wn = mass fraction of the nth substance listed; details: 101 kPa, Liquid; for speed of sound: Sing-around technique in a fixed-path interferometer

O [water] + O=P([O-])([O-])[O-].[Na+].[Na+].[Na+]
Details	mass density [kg/m3]
[1]	999.699

CCCO [propan-1-ol] + O
[2]
Details	mass density, 283.15 K [kg/m3]	mass density, 288.15 K [kg/m3]	mass density, 293.15 K [kg/m3]	mass density, 298.15 K [kg/m3]	mass density, 303.15 K [kg/m3]	speed of sound, 283.15 K [m/s]	speed of sound, 288.15 K [m/s]	speed of sound, 293.15 K [m/s]	speed of sound, 298.15 K [m/s]	speed of sound, 303.15 K [m/s]
w1 = 0.05	992.405	991.687	990.671	989.387	987.86	1499	1512.2	1523.9	1533.8	1542.2
w1 = 0.1	987.187	986.194	984.913	983.372	981.595	1548.6	1556.5	1563.3	1568.7	1572.9
w1 = 0.15	982.892	981.496	979.828	977.921	975.791	1585.2	1587.6	1589	1589.2	1588.6
